In PubChem BioAssay (NCI):
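Test compounds were applied to cells in 96-well plates for 48 hours at 5 doses. TGI: concentration producing complete growth inhibition.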

Tests used:
Assay in all cases: NCI tumour cell line growth inhibition, 48 h
IGROV1 ovarian = test system: IGROV1 ovarian
T-47D breast = test system: T-47D breast
UACC-257 melanoma = test system: UACC-257 melanoma
M14 melanoma = test system: M14 melanoma
KM12 colon = test system: KM12 colon
EKVX NSCLC = test system: EKVX NSCLC
HS 578T breast = test system: HS 578T breast
MOLT-4 leukemia = test system: MOLT-4 leukemia
HCT-15 colon = test system: HCT-15 colon
OVCAR-4 ovarian = test system: OVCAR-4 ovarian
HL-60(TB) leukemia = test system: HL-60(TB) leukemia
UO-31 renal = test system: UO-31 renal
U251 CNS = test system: U251 CNS
SF-539 CNS = test system: SF-539 CNS
HCC-2998 colon = test system: HCC-2998 colon
SF-295 CNS = test system: SF-295 CNS
OVCAR-5 ovarian = test system: OVCAR-5 ovarian
K-562 leukemia = test system: K-562 leukemia
PC-3 prostate = test system: PC-3 prostate
SK-MEL-5 melanoma = test system: SK-MEL-5 melanoma
TK-10 renal = test system: TK-10 renal
SN12C renal = test system: SN12C renal
SNB-75 CNS = test system: SNB-75 CNS
CCRF-CEM leukemia = test system: CCRF-CEM leukemia
SK-OV-3 ovarian = test system: SK-OV-3 ovarian
SK-MEL-28 melanoma = test system: SK-MEL-28 melanoma
HCT-116 colon = test system: HCT-116 colon
MCF7 breast = test system: MCF7 breast
HOP-62 NSCLC = test system: HOP-62 NSCLC
COLO 205 colon = test system: COLO 205 colon
786-0 renal = test system: 786-0 renal
ACHN renal = test system: ACHN renal
SNB-19 CNS = test system: SNB-19 CNS
A549 NSCLC = test system: A549 NSCLC
SW-620 colon = test system: SW-620 colon
MDA-N = test system: MDA-N
SR leukemia = test system: SR leukemia
MDA-MB-231 breast = test system: MDA-MB-231 breast
OVCAR-8 ovarian = test system: OVCAR-8 ovarian
NCI/ADR-RES ovarian = test system: NCI/ADR-RES ovarian
MDA-MB-435 = test system: MDA-MB-435
SF-268 CNS = test system: SF-268 CNS
NCI-H522 lung = test system: NCI-H522 lung
RPMI-8226 leukemia = test system: RPMI-8226 leukemia
NCI-H460 lung = test system: NCI-H460 lung
A498 renal = test system: A498 renal
HOP-92 NSCLC = test system: HOP-92 NSCLC
DU-145 prostate = test system: DU-145 prostate
NCI-H226 lung = test system: NCI-H226 lung
LOX IMVI melanoma = test system: LOX IMVI melanoma
HT29 colon = test system: HT29 colon
NCI-H23 lung = test system: NCI-H23 lung
RXF 393 renal = test system: RXF 393 renal
OVCAR-3 ovarian = test system: OVCAR-3 ovarian
UACC-62 melanoma = test system: UACC-62 melanoma
SK-MEL-2 melanoma = test system: SK-MEL-2 melanoma
MALME-3M melanoma = test system: MALME-3M melanoma

Compound: Nc1ccc(Sc2nnc(N)s2)cc1
- TGI (IGROV1 ovarian): > 100 µM
- TGI (T-47D breast): > 100 µM
- TGI (UACC-257 melanoma): > 100 µM
- TGI (M14 melanoma): > 100 µM
- TGI (KM12 colon): > 100 µM
- TGI (EKVX NSCLC): > 100 µM
- TGI (HS 578T breast): > 100 µM
- TGI (MOLT-4 leukemia): > 100 µM
- TGI (HCT-15 colon): > 100 µM
- TGI (OVCAR-4 ovarian): > 100 µM
- TGI (HL-60(TB) leukemia): > 100 µM
- TGI (UO-31 renal): > 100 µM
- TGI (U251 CNS): > 100 µM
- TGI (SF-539 CNS): > 100 µM
- TGI (HCC-2998 colon): > 100 µM
- TGI (SF-295 CNS): > 100 µM
- TGI (OVCAR-5 ovarian): > 100 µM
- TGI (K-562 leukemia): > 100 µM
- TGI (PC-3 prostate): > 100 µM
- TGI (SK-MEL-5 melanoma): > 100 µM
- TGI (TK-10 renal): > 100 µM
- TGI (SN12C renal): > 100 µM
- TGI (SNB-75 CNS): > 100 µM
- TGI (CCRF-CEM leukemia): > 100 µM
- TGI (SK-OV-3 ovarian): > 100 µM
- TGI (SK-MEL-28 melanoma): > 100 µM
- TGI (HCT-116 colon): > 100 µM
- TGI (MCF7 breast): > 100 µM
- TGI (HOP-62 NSCLC): > 100 µM
- TGI (COLO 205 colon): > 100 µM
- TGI (786-0 renal): > 100 µM
- TGI (ACHN renal): > 100 µM
- TGI (SNB-19 CNS): > 100 µM
- TGI (A549 NSCLC): > 100 µM
- TGI (SW-620 colon): > 100 µM
- TGI (MDA-N): > 100 µM
- TGI (SR leukemia): > 100 µM
- TGI (MDA-MB-231 breast): > 100 µM
- TGI (OVCAR-8 ovarian): > 100 µM
- TGI (NCI/ADR-RES ovarian): > 100 µM
- TGI (MDA-MB-435): > 100 µM
- TGI (SF-268 CNS): > 100 µM
- TGI (NCI-H522 lung): > 100 µM
- TGI (RPMI-8226 leukemia): > 100 µM
- TGI (NCI-H460 lung): > 100 µM

Compound: CCOC(=O)C1CSCCSC1
- TGI (A498 renal): > 100 µM
- TGI (UACC-257 melanoma): > 100 µM
- TGI (KM12 colon): > 100 µM
- TGI (HS 578T breast): > 100 µM
- TGI (MOLT-4 leukemia): > 100 µM
- TGI (HCT-15 colon): > 100 µM
- TGI (UO-31 renal): > 100 µM
- TGI (HOP-92 NSCLC): > 100 µM
- TGI (U251 CNS): > 100 µM
- TGI (DU-145 prostate): > 100 µM
- TGI (NCI-H226 lung): > 100 µM
- TGI (HCC-2998 colon): > 100 µM
- TGI (SF-295 CNS): > 100 µM
- TGI (K-562 leukemia): > 100 µM
- TGI (PC-3 prostate): > 100 µM
- TGI (SK-MEL-5 melanoma): > 100 µM
- TGI (LOX IMVI melanoma): > 100 µM
- TGI (TK-10 renal): > 100 µM
- TGI (SN12C renal): > 100 µM
- TGI (HT29 colon): > 100 µM
- TGI (SNB-75 CNS): > 100 µM
- TGI (CCRF-CEM leukemia): > 100 µM
- TGI (SK-OV-3 ovarian): > 100 µM
- TGI (NCI-H23 lung): > 100 µM
- TGI (SK-MEL-28 melanoma): > 100 µM
- TGI (HCT-116 colon): > 100 µM
- TGI (MCF7 breast): > 100 µM
- TGI (COLO 205 colon): > 100 µM
- TGI (RXF 393 renal): > 100 µM
- TGI (ACHN renal): > 100 µM
- TGI (SNB-19 CNS): > 100 µM
- TGI (A549 NSCLC): > 100 µM
- TGI (SW-620 colon): > 100 µM
- TGI (MDA-N): > 100 µM
- TGI (SR leukemia): > 100 µM
- TGI (MDA-MB-231 breast): > 100 µM
- TGI (OVCAR-8 ovarian): > 100 µM
- TGI (NCI/ADR-RES ovarian): > 100 µM
- TGI (MDA-MB-435): > 100 µM
- TGI (SF-268 CNS): > 100 µM
- TGI (NCI-H522 lung): > 100 µM
- TGI (NCI-H460 lung): 57.6 µM

Compound: COc1cc2c3c(c1Oc1nnnn1-c1ccccc1)-c1c(ccc4c1OCO4)C[C@H]3N(C)CC2
- TGI (OVCAR-3 ovarian): > 100 µM
- TGI (IGROV1 ovarian): > 100 µM
- TGI (T-47D breast): > 100 µM
- TGI (UACC-257 melanoma): 40 µM
- TGI (M14 melanoma): 37.5 µM
- TGI (KM12 colon): > 100 µM
- TGI (EKVX NSCLC): > 100 µM
- TGI (HS 578T breast): > 100 µM
- TGI (MOLT-4 leukemia): > 100 µM
- TGI (HCT-15 colon): 73.1 µM
- TGI (HL-60(TB) leukemia): > 100 µM
- TGI (UO-31 renal): > 100 µM
- TGI (HOP-92 NSCLC): 78.6 µM
- TGI (U251 CNS): > 100 µM
- TGI (SF-539 CNS): > 100 µM
- TGI (DU-145 prostate): > 100 µM
- TGI (NCI-H226 lung): > 100 µM
- TGI (HCC-2998 colon): 36.3 µM
- TGI (SF-295 CNS): > 100 µM
- TGI (OVCAR-5 ovarian): > 100 µM
- TGI (K-562 leukemia): > 100 µM
- TGI (PC-3 prostate): > 100 µM
- TGI (SK-MEL-5 melanoma): > 100 µM
- TGI (LOX IMVI melanoma): 77.5 µM
- TGI (TK-10 renal): > 100 µM
- TGI (SN12C renal): > 100 µM
- TGI (HT29 colon): 41.9 µM
- TGI (SNB-75 CNS): 91.3 µM
- TGI (CCRF-CEM leukemia): > 100 µM
- TGI (SK-OV-3 ovarian): > 100 µM
- TGI (NCI-H23 lung): > 100 µM
- TGI (SK-MEL-28 melanoma): 37.1 µM
- TGI (HCT-116 colon): > 100 µM
- TGI (UACC-62 melanoma): 29 µM
- TGI (HOP-62 NSCLC): > 100 µM
- TGI (SK-MEL-2 melanoma): > 100 µM
- TGI (MALME-3M melanoma): 34.8 µM
- TGI (COLO 205 colon): > 100 µM
- TGI (786-0 renal): 39.7 µM
- TGI (ACHN renal): 88.7 µM
- TGI (SNB-19 CNS): > 100 µM
- TGI (A549 NSCLC): > 100 µM
- TGI (SW-620 colon): > 100 µM
- TGI (MDA-N): 55.1 µM
- TGI (SR leukemia): > 100 µM
- TGI (MDA-MB-231 breast): > 100 µM
- TGI (OVCAR-8 ovarian): > 100 µM
- TGI (NCI/ADR-RES ovarian): > 100 µM
- TGI (MDA-MB-435): 51.3 µM
- TGI (SF-268 CNS): > 100 µM
- TGI (NCI-H522 lung): 94.6 µM
- TGI (RPMI-8226 leukemia): > 100 µM
- TGI (NCI-H460 lung): > 100 µM
